Biological target: USP14 (Homo sapiens (Human), UniProt P54578)
Assay: Usp14 inhibition assay (Example 57B, B-series compounds)
Assay type: biochemical
Details: IC50 class; average value from a minimum of two experimental determinations
Excerpt: Example 57B: Usp14 Inhibition Assay
The IC50 values in the Table below represent the average value from a minimum of two experimental determinations.

Sequence of USP14 (P54578 whole entry, looked up): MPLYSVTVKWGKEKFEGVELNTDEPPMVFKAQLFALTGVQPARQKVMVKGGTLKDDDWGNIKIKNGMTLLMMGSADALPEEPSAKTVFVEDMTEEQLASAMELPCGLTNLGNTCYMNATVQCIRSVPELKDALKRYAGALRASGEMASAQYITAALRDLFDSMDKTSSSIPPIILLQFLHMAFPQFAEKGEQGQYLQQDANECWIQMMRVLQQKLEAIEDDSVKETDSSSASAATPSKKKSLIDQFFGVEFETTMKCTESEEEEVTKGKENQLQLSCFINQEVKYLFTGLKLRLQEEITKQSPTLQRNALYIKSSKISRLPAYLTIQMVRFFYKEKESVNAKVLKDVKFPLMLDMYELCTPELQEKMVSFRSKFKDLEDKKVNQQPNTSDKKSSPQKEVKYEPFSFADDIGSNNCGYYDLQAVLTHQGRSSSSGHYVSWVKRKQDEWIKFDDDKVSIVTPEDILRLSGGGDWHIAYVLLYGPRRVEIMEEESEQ

SMILES	IC50
Cc1c(C(=O)CN2C3CCC2CC3)c(C)n(-c2ccc(C#N)cc2)c1CCCCS(C)(=O)=O [Example 1B, 4-(3-(2-(7-Azabicyclo[2.2.1]heptan-7-yl)acetyl)-2,4-dimethyl-5-(4-(methylsulfonyl)butyl)-1H-pyrrol-1-yl)benzonitrile]	> 500 nM
Cc1cc(C(=O)CN2[C@@H]3CC[C@H]2[C@@H](C)[C@@H]3C)c(C)n1-c1ccc(C#N)cc1 (racemic) [Example 140B, (±)-4-(3-(2-((1R,2R,3R,4S)-2,3-Dimethyl-7-azabicyclo[2.2.1]heptan-7-yl)acetyl)-2,5-dimethyl-1H-pyrrol-1-yl)benzonitrile]	50 to 500 nM
Cc1nc(Cc2c(Cl)c(C(=O)CN3C4CCC3[C@@H](O)C4)c(C)n2-c2ccc(C#N)cc2)cs1 (stereo partly shown) [Example 128B]	< 50 nM
Cc1cc(C(=O)CN2[C@@H]3CC[C@@H]2CC(O)(C(F)(F)F)C3)c(C)n1-c1ccc(C#N)cc1 (stereo partly drawn) [Example 74B, 4-(3-(2-((1R,3r,5S)-3-Hydroxy-3-(trifluoromethyl)-8-azabicyclo[3.2.1]octan-8-yl)acetyl)-2,5-dimethyl-1H-pyrrol-1-yl)benzonitrile]	> 500 nM
Cc1c(C(=O)CN2[C@@H]3CC[C@@H]2[C@@H](O)C3)cc(/C=C/CN)n1-c1ccc(C#N)cc1 (racemic) [Example 156B, (±)-4-(5-((E)-3-Aminoprop-1-en-1-yl)-3-(2-((1S,2R,4S)-2-hydroxy-7-azabicyclo[2.2.1]heptan-7-yl)acetyl)-2-methyl-1H-pyrrol-1-yl)benzonitrile]	< 50 nM
Cc1cc(C(=O)CN2C3CCCC2CC(O)C3)c(C)n1-c1ccc(C#N)cc1 [Example 85B, 4-(3-(2-((1R,3s,5S)-3-Hydroxy-9-azabicyclo[3.3.1]nonan-9-yl)acetyl)-2,5-dimethyl-1H-pyrrol-1-yl)benzonitrile]	50 to 500 nM
Cc1cc(C(=O)CN2C3CCC2[C@@H](O)C3)c(C)n1-c1ccc(C#N)c(F)c1 (mixture of isomers) [Example 90B, (±)-2-Fluoro-4-(3-(2-((2R)-2-hydroxy-7-azabicyclo[2.2.1]heptan-7-yl)acetyl)-2,5-dimethyl-1H-pyrrol-1-yl)benzonitrile]	< 50 nM
Cc1cc(C(=O)CN2C3CCCC2CCC3)c(C)n1-c1ccc(C#N)cc1 [Example 87B, 4-(3-(2-((1s,5s)-9-Azabicyclo[3.3.1]nonan-9-yl)acetyl)-2,5-dimethyl-1H-pyrrol-1-yl)benzonitrile]	50 to 500 nM
Cc1c(C(=O)CN2C3CCC2[C@@H](O)C3)cc(C(F)(F)F)n1-c1ccc(C#N)cc1 (mixture of isomers) [Example 109B, (±)-4-(3-(2-((2R)-2-Hydroxy-7-azabicyclo[2.2.1]heptan-7-yl)acetyl)-2-methyl-5-(trifluoromethyl)-1H-pyrrol-1-yl)benzonitrile]	50 to 500 nM
Cc1c(C(=O)CN2C3CCC2[C@@H](O)C3)cc(/C=C/CC2CC(C)(C)OC2=O)n1-c1ccc(C#N)cc1 (mixture of isomers) [Example 52B, (±)-4-(5-((E)-3-(5,5-Dimethyl-2-oxotetrahydrofuran-3-yl)prop-1-en-1-yl)-3-(2-((1S,2S,4R)-2-hydroxy-7-azabicyclo[2.2.1]heptan-7-yl)acetyl)-2-methyl-1H-pyrrol-1-yl)benzonitrile]	< 50 nM
CCC(C)c1cc(C(=O)CN2C3CCC2[C@@H](O)C3)c(C)n1-c1ccc(C#N)cc1 (mixture of isomers) [Example 114B, (±)-4-(5-(sec-Butyl)-3-(2-((1R,2R,4S)-2-hydroxy-7-azabicyclo[2.2.1]heptan-7-yl)acetyl)-2-methyl-1H-pyrrol-1-yl)benzonitrile]	50 to 500 nM
Cc1cc(C(=O)CN2C3CCC2(C)CC3)c(C)n1-c1ccc(C#N)cc1 [Example 125B, 4-(2,5-Dimethyl-3-(2-(1-methyl-7-azabicyclo[2.2.1]heptan-7-yl)acetyl)-1H-pyrrol-1-yl)benzonitrile]	50 to 500 nM
Cc1c(C(=O)CN2C3CCC2[C@@H](O)C3)c(Cl)c(CCCCC#N)n1-c1ccc(C#N)c(F)c1 (mixture of isomers) [Example 40B, (±)-4-(3-Chloro-2-(4-cyanobutyl)-4-(2-((2R)-2-hydroxy-7-azabicyclo[2.2.1]heptan-7-yl)acetyl)-5-methyl-1H-pyrrol-1-yl)-2-fluorobenzonitrile]	< 50 nM
Cc1cc(C(=O)CN2C3CC4CC2C(C3)O4)c(C)n1-c1ccc(C#N)cc1 (racemic) [Example 92B, (±)-4-(3-(2-((2R,3aS,5R,6aS)-Hexahydro-4H-2,5-methanofuro[3,2-b]pyrrol-4-yl)acetyl)-2,5-dimethyl-1H-pyrrol-1-yl)benzonitrile]	50 to 500 nM
Cc1c(F)c(C(=O)CN2[C@@H]3C=C(C(F)(F)F)[C@H]2CC3)c(C)n1-c1ccc(C#N)cc1 (racemic) [Example 149B, (±)-4-(3-Fluoro-2,5-dimethyl-4-(2-((1R,4S)-2-(trifluoromethyl)-7-azabicyclo[2.2.1]hept-2-en-7-yl)acetyl)-1H-pyrrol-1-yl)benzonitrile]	50 to 500 nM
Cc1c(C(=O)CN2[C@H]3CC[C@@H]2[C@@H](O)C3)cc(CC2(Cl)CCC2)n1-c1ccc(C#N)cc1 (racemic) [Example 157B, (±)-4-(5-((1-Chlorocyclobutyl)methyl)-3-(2-((1S,2R,4R)-2-hydroxy-7-azabicyclo[2.2.1]heptan-7-yl)acetyl)-2-methyl-1H-pyrrol-1-yl)benzonitrile]	50 to 500 nM
Cc1c(C(=O)CN2C3CCC2[C@@H](O)C3)cc(CCCC2(C)COC2)n1-c1ccc(C#N)cc1 (mixture of isomers) [Example 42B, (±)-4-(3-(2-((2R)-2-Hydroxy-7-azabicyclo[2.2.1]heptan-7-yl)acetyl)-2-methyl-5-(3-(3-methyloxetan-3-yl)propyl)-1H-pyrrol-1-yl)benzonitrile]	< 50 nM
Cc1cc(C(=O)CN2[C@@H]3CC[C@@H]2CC(C)(O)C3)c(C)n1-c1ccc(C#N)cc1 (stereo partly drawn) [Example 68B, 4-(3-(2-((1R,3r,5S)-3-Hydroxy-3-methyl-8-azabicyclo[3.2.1]octan-8-yl)acetyl)-2,5-dimethyl-1H-pyrrol-1-yl)benzonitrile]	50 to 500 nM
Cc1cc(C(=O)CN2C3CCC2[C@@H](CO)C3)c(C)n1-c1ccc(C#N)cc1 (mixture of isomers) [Example 130B, (±)-4-(3-(2-((2R)-2-(Hydroxymethyl)-7-azabicyclo[2.2.1]heptan-7-yl)acetyl)-2,5-dimethyl-1H-pyrrol-1-yl)benzonitrile]	50 to 500 nM
Cc1cc(C(=O)CN2C3CCC2[C@@H](CC(C)(C)O)C3)c(C)n1-c1ccc(C#N)cc1 (mixture of isomers) [Example 148B, (±)-4-(3-(2-((2S)-2-(2-Hydroxy-2-methylpropyl)-7-azabicyclo[2.2.1]heptan-7-yl)acetyl)-2,5-dimethyl-1H-pyrrol-1-yl)benzonitrile]	> 500 nM
Cc1c(F)c(C(=O)CN2C3CCC2[C@@H](O)C3)c(C)n1-c1ccc(C#N)cc1 (mixture of isomers) [Example 78B, (±)-4-(3-Fluoro-4-(2-((2R)-2-hydroxy-7-azabicyclo[2.2.1]heptan-7-yl)acetyl)-2,5-dimethyl-1H-pyrrol-1-yl)benzonitrile]	50 to 500 nM
CSCCCCc1cc(C(=O)CN2C3CCC2[C@@H](O)C3)c(C)n1-c1ccc(C#N)cc1 (mixture of isomers) [Example 37B, (±)-4-(3-(2-((2R)-2-Hydroxy-7-azabicyclo[2.2.1]heptan-7-yl)acetyl)-2-methyl-5-(4-(methylthio)butyl)-1H-pyrrol-1-yl)benzonitrile]	< 50 nM

From US11560385B2, “Proteasome activity enhancing compounds” (Proteostasis Therapeutics, Inc., priority 2018, dated 2023)
